Experimental data published in US9957295B2, “Peptides inhibiting cold-inducible RNA binding protein activity” (The Feinstein Institute for Medical Research, priority 2013, dated 2018).
Entries after “also recorded” stand apart in the source; their conditions may differ. Each block holds one molecule with its values, some of them ahead of it.

How the values were obtained:
rhMD2 = target: T1, rhMD2 (Homo sapiens, UniProt Q9Y6Y9); assay: SPR binding to immobilized rhMD2; details: oligopeptides passed over immobilized rhMD2
T1 construct: Glu17-Asn160); 10-His (C); purchased R&D Systems; host or cells: E. coli
T1 sequence (Q9Y6Y9 17-160): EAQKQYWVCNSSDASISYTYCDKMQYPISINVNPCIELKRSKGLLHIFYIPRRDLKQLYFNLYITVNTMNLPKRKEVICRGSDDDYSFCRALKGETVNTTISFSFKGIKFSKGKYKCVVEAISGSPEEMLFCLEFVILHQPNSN
Experimental: Analysis of protein-protein and peptide-protein interactions were conducted using the BIAcore T200 instrument (GE Healthcare). Binding reactions were performed in 1×PBS buffer containing 0.01% Tween-20 (pH 7.4). The CM5 dextran chip (flow cell-2) was first activated by injection with 89 μl of 0.1 M […] and 0.1 M N-hydroxysuccinimide. An aliquot of 200 μl of 5 μg/ml of the ligand diluted in 10 mM sodium acetate (pH 4.5) was injected into flow cell-2 of the CM5 chip for immobilization. Next, 135 μl of 1 M ethanolamine (pH 8.2) was then injected to block the remaining active sites. The flow cell-1 without coating with the ligand was used as a control to evaluate nonspecific binding. The binding analyses were performed at flow rate of 30 μl/min at 25° C. To evaluate the binding, the analyte (ranging from 62.5 nM to 1.0 μM for kinetics analysis or 0.5 μM for yes/no binding analysis) was injected into flow cell-1 and -2 and the association of analyte and ligand was recorded respectively by surface plasmon resonance. The signal from the blank channel (flow cell-1) was subtracted from the channel (flow-cell 2) coated with the ligand. Data were analyzed by the BIAcore T200 Evaluation Software. For all samples, a blank injection with buffer alone was subtracted from the resulting reaction surface data. Data were globally fitted to the Lagmuir model for a 1:1 binding.
Surface plasmon resonance (SPR) analysis was utilized to determine the physical interaction and binding affinity between rhCIRP and pattern-recognition receptors and MD2. […] The sensorgrams show association and dissociation of analyte at the indicated concentration passed over to the immobilized ligand on the sensor chip, indicated as analyte/ligand on top of each diagram. […] The region of CIRP that binds to MD2 was determined via the synthesis of 32 oligopeptides (15-mer) covering the entire human CIRP sequence. The oligopeptides were passed over immobilized rhMD2 on the BIAcore instrument, followed by subsequent performance of a series of SPR analyses. Three oligopeptides with high binding affinity were indicated. […] Three oligopeptides, aa 101-115, 106-120 (C22), and 111-125 (C23) bound to rhMD2 with high affinity (FIG. 14 and FIG. 19).

[1] = test system: LPS-induced TNF-α production in differentiated THP-1 cells; assay: Peptide inhibition of LPS-induced TNF-α production in differentiated THP-1 cells (ELISA); type: cell-based, human
Experimental: Human monocytic THP-1 cells (American Type Culture Collection, Manassas, Va.), were seeded in suspension into T75 tissue culture flask at a density of 1.5×10^6 cells and cultured with RPMI-1640 medium supplemented with 10% heat-inactivated fetal bovine serum, 1% penicillin/streptomycin, 2 mM glutamine and additional 0.05 mM β-mercaptoethanol at 37° C. in a humidified incubator with 5% CO2.
Cells were plated at a density of 5×10^4 per well in 96-well tissue culture plate and incubated with phorbol 12-myristate 13-acetate (20 ng/ml) for 48 h to become differentiated macrophages-like cells before experiment. Cells were used between passages 5 and 12. Cells were pretreated with indicated concentrations of CIRP-derived peptides C22 (SEQ ID NO: 13) or C23 (SEQ ID NO: 12) for 1 h, and then incubated in the absence or presence rmCIRP or LPS (from E. coli O111:B4, Sigma St. Louis, Mo.) with Opti-MEM-medium for 6 h. The cell-free supernatants were assayed for TNF-α by ELISA.
Supernatants were measured for TNF-α levels using a commercially available enzyme-linked immunosorbent assay (ELISA) kits-human TNF-α set (BioSource International, Camarillo, Calif.) according to the manufacturer's instruction.
The CIRP-derived peptides were also found to modulate LPS-induced TNF-α release in differentiated THP-1 cells. […] The doses of C22 or C23 at 2 ng/ml, equivalent to 1.3 pmol/ml and LPS at 10 ng/ml, equivalent to 0.67 pmol/ml, peptides and LPS molar ratios at 2:1 were used to treat cells.

septic mice (CLP) = assay: Mouse CLP severe sepsis survival study; type: in vivo
Experimental: Mice were subjected to CLP and treated immediately after operation with the antibiotic imipenem ([…] BW) and resuscitative fluid. At 2 hours after CLP, mice were administered C23 (8 mg/kg BW) or an equivalent volume of normal saline (vehicle) via the internal jugular vein. Survival was then assessed every 12 hours.

[2] = test system: MLVEC stimulated with rmCIRP; assay: rmCIRP-stimulated mouse lung vascular endothelial cells (MLVEC); type: cell-based; details: C23 200 ng/ml
Experimental: MLVEC were treated with rmCIRP in the presence of C23 or non-specific oligopeptide P5 (negative control) for 4 hours. Cells were harvested, lysed and the cell lysate analyzed by SDS-PAGE and Western blotting (immunodetection). Referring to FIG. 23A, ICAM-1 expression is abrogated in the presence of 200 ng/ml of the oligopeptide C23.
Similarly, the release of IL-1beta by MLVEC stimulated by rmCIRP was blocked (as determined by ELISA) when 200 ng/ml of the oligopeptide C23 was added to the media, as shown in FIG. 23B. (For FIGS. 23A and 23B: Mean+/−SD, n=3, *P<0.05 vs. groups without C23.)

mice subjected to CLP = assay: Mouse CLP sepsis, markers 24 hours post-CLP; type: in vivo; details: 8 mg/kg 2 hours after CLP
Experimental: Mice subjected to CLP were treated 2 hours later with the oligopeptide C23 (8 mg/kg) or saline.
In FIGS. 23A through 23C: Mean+/−SD; n=4-8/group; *P<0.05 vs. sham, #P<0.05 vs. vehicle, one-way ANOVA. mRNA amounts are measured by qPCR; protein levels are measured by ELISA.

[3] = test system: LPS-induced TNF-α release, RAW 264.7 cells; assay: Polymyxin B on LPS-induced TNF-α release from RAW 264.7 cells; type: cell-based, murine; details: PMB 120 U/ml, LPS 10 ng/ml, 8 hours
Experimental: (§1) Murine macrophage-like RAW 264.7 cells were obtained from ATCC (American Type Culture Collection, Manassas, Va.), and were grown in Dulbecco's Modified Eagle's Medium (DMEM, Life Technologies, Grand Island, N.Y.) containing 10% (vol/vol) FBS (heat-inactivated at 56° C. for 30 min), 100 U/ml penicillin, 100 μg/ml streptomycin and 2 mM glutamine. Cells were re-suspended in medium and incubated in 6 or 48-well tissue-culture plates overnight in a humidified incubator (37° C., 5% CO2). In the experiments, cell monolayers were stimulated with or without recombinant CIRP at various indicated concentrations and for various indicated times. The cell-free supernatants were assayed for TNF-α by ELISA or for HMGB1 by western blot analysis.
(§2) To conduct this experiment, rmCIRP (1.5 μg/ml or LPS (10 ng/ml) was treated with polymyxin B (PMB, 120 U/ml) or heated at 80° C. for 30 min before being added to RAW 264.7 cells for 8 hours. *P<0.05 vs. rmCIRP; #P<0.05 vs. LPS.

[4] = test system: rmCIRP-induced TNF-α production, RAW 264.7 cells; assay: Polymyxin B on rmCIRP-induced TNF-α production in RAW 264.7 cells; type: cell-based, murine; details: PMB 120 U/ml, rmCIRP 1.5 μg/ml, 8 hours
Experimental: as §1, §2

THP-1 cells = assay: TNF-α release from differentiated THP-1 cells stimulated with recombinant proteins; type: cell-based, human; details: 0.3 μg/ml each protein, 8 h, ELISA
Experimental: As with the murine model, the stimulation of TNF-α, release by rCIRP in a human model was studied. […] These experiments were conducted by incubating differentiated human THP-1 cells with rhCIRP or rmCIRP at the indicated concentrations for 4 h. *P<0.05 vs. no CIRP. Similarly, human PBMC were incubated with the indicated concentrations of rhCIRP for 8 h. *P<0.05 vs. no rhCIRP. Thus, stimulation of cytokine release by CIRP was not attributable to LPS contamination. Furthermore, CIRP-induced cytokine activation was conserved between rodents and humans.
rmCIRP induced TNF-α and HMGB1 release in macrophages (FIGS. 10a, b and c). It was reported that HMGB1 can also stimulate TNF-α release (Andersson, U., et al. High mobility group 1 protein (HMG-1) stimulates proinflammatory cytokine synthesis in human monocytes. J. Exp. Med. 192, 565-570 (2000)). The relationship between CIRP and HMGB1 on stimulating TNF-α release was analyzed by applying respective neutralizing antibodies. […] After 4 h, TNF-α levels in conditioned medium (CM) were assayed by ELISA. Data are mean±s.e.m. from three independent experiments. *P<0.05 vs. rmCIRP+ control IgG. In FIG. 16D, RAW 264.7 cells were pre-incubated with rabbit control IgG or anti-CIRP antibodies at indicated dilutions of 1 mg/ml for 20 min before adding 1.0 μg/ml rmCIRP. After 4 h, TNF-α levels in CM were assayed by ELISA. Data are mean±s.e.m. from three independent experiments. *P<0.05 vs. rmCIRP+ control IgG. THP-1 cells were incubated with 4 μg/ml of anti-CIRP antibodies, anti-HMGB1 antibodies, or non-immunized control IgG for 1 h prior to adding rmCIRP (0.3 μg/ml), rmHMGB1 (0.3 μg/ml), or rmCIRP/rmHMGB1 (0.3 μg/ml, 0.3 μg/ml) for 8 h. *P<0.05 vs. rmCIRP; #P<0.05 vs. rmHMGB1. […] Furthermore, rmCIRP, rmHMGB1, and rmCIRP plus rmHMGB1 induced TNF-α levels of 0.8, 0.6, and 1.6 ng/ml, respectively. […] TNF-α levels in all collected CM were assayed by ELISA. Data are mean±s.e.m. from three or four independent experiments.
Murine macrophage-like RAW 264.7 cells and human monocyte THP-1 cells were obtained from ATCC (Manassas, Va.). […]

TLR4 = TLR4 (Homo sapiens, UniProt O00206); details: literature; read-out: KD, binding to TLR4; cited from earlier work
Sequence of TLR4 (O00206 24-631 limits assumed, species assumed): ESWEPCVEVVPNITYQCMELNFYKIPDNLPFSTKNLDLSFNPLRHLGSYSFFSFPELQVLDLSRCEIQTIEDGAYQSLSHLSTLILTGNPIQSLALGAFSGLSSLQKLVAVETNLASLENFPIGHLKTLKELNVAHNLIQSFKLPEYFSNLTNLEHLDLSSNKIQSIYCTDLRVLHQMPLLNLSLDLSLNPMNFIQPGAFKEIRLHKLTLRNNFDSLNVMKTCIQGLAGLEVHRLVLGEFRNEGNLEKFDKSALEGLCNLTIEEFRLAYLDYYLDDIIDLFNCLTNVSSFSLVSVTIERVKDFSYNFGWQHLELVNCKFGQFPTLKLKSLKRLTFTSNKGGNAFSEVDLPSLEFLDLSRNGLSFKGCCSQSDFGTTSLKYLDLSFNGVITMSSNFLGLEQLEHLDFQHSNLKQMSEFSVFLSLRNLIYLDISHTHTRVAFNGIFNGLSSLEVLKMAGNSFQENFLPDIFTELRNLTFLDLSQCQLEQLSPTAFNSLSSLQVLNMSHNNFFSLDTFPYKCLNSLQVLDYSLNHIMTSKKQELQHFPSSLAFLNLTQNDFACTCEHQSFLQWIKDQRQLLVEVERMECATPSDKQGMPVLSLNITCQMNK

Molecule: GRGFSRGGGDRGYGG (fragment of CIRP) [C23, 15-mer oligopeptide derived from human CIRP]
- binding affinity of 15-mer oligopeptides to rhMD2 (in words) (rhMD2): high affinity; also recorded: highest affinity
- effect on LPS-induced TNF-α release in THP-1 cells (in words) [1]: inhibit
- survival (Kaplan-Meier, in words) (septic mice (CLP); 8 mg/kg BW 2 hours after CLP, all vehicle mice died within 48 hours): some of C23-treated mice lived longer
- average survival time (septic mice (CLP); 8 mg/kg BW via internal jugular vein 2 hours after CLP, with imipenem): 44.2 h
- ICAM-1 expression in MLVEC ([2]; 4 hours, Western blot): abrogated
- release of IL-1beta by MLVEC ([2]; ELISA): blocked
- serum levels of TNF-α and IL-6 (mice subjected to CLP): lower
- expression of E-selectin, ICAM-1, TNF-α and IL-1β in the lungs (mice subjected to CLP; 24 hours post-CLP): significant decrease

- binding affinity of 15-mer oligopeptides to rhMD2 (in words) (rhMD2): high affinity
Molecule: RGFFRGGRGRGRGFS (fragment of CIRP) [C21, 15-mer oligopeptide derived from human CIRP]
- effect on LPS-induced TNF-α release in THP-1 cells (in words) [1]: does not suppress

Molecule: Polymyxin B
- inhibition of LPS-induced TNF-α release [3]: 84%
- effect on rmCIRP-induced TNF-α production [4]: did not interfere

- binding affinity of 15-mer oligopeptides to rhMD2 (in words) (rhMD2): high affinity
Molecule: GGRGRGRGFSRGGGD (fragment of CIRP) [C22, 15-mer oligopeptide derived from human CIRP]
- effect on LPS-induced TNF-α release in THP-1 cells (in words) [1]: inhibit

B1: rmHMGB1: recombinant HMGB1 produced as in Yang et al. 2004 (protein, UniProt P63158 1-215, looked up)
High mobility group protein B1: MGKGDPKKPRGKMSSYAFFVQTCREEHKKKHPDASVNFSEFSKKCSERWKTMSAKEKGKFEDMAKADKARYEREMKTYIPPKGETKKKFKDPNAPKRPPSAFFLFCSEYRPKIKGEHPGLSIGDVAKKLGEMWNNTAADDKQPYEKKAAKLKEKYEKDIAAYRAKGKPDAAKKGVVKAEKSKKKKEEEDDEEDEEDEEEEEEEEDEDEEEDDDDE
- induced TNF-α levels (THP-1 cells): 0.6 ng/mL

B2: rhMD2: recombinant human MD2 (Glu17-Asn160) with 10-His tag, expressed from E. coli, R&D Systems (protein)
chain: EAQKQYWVCNSSDASISYTYCDKMQYPISINVNPCIELKRSKGLLHIFYIPRRDLKQLYFNLYITVNTMNLPKRKEVICRGSDDDYSFCRALKGETVNTTISFSFKGIKFSKGKYKCVVEAISGSPEEMLFCLEFVILHQPNSNHHHHHHHHHH
- Kd (TLR4): 62.9 nM
